Test results published in ChEMBL document CHEMBL5357064 (ACS Med Chem Lett, 2024).
pKi: −log10 of the molar value.

Tests used:
[1] = target: T1, Small conductance calcium-activated potassium channel protein 2 (Homo sapiens, UniProt Q9H2S1); experiment: Displacement of [125I]apamin from SK2 (unknown origin) expressed in HEK293 cells assessed as inhibition constant incubated for 1 hr by liquid scintillation counting analysis; format: cell-based
[2] = target: T1, Small conductance calcium-activated potassium channel protein 2; experiment: Displacement of [125I]apamin from human SK2 expressed in HEK293 cells assessed as inhibition constant incubated for 1 hr by liquid scintillation counting analysis; format: cell-based
[3] = target: Small conductance calcium-activated potassium channel protein 3 (Homo sapiens, UniProt Q9UGI6); experiment: Displacement of [125I]apamin from human SK3 expressed in HEK293 cells assessed as inhibition constant incubated for 1 hr by liquid scintillation counting analysis; format: cell-based
Homo sapiens = species: Homo sapiens; experiment: Selectivity ratio of Ki for human SK3 to Ki for human SK2

T1 sequence (Q9H2S1 whole entry): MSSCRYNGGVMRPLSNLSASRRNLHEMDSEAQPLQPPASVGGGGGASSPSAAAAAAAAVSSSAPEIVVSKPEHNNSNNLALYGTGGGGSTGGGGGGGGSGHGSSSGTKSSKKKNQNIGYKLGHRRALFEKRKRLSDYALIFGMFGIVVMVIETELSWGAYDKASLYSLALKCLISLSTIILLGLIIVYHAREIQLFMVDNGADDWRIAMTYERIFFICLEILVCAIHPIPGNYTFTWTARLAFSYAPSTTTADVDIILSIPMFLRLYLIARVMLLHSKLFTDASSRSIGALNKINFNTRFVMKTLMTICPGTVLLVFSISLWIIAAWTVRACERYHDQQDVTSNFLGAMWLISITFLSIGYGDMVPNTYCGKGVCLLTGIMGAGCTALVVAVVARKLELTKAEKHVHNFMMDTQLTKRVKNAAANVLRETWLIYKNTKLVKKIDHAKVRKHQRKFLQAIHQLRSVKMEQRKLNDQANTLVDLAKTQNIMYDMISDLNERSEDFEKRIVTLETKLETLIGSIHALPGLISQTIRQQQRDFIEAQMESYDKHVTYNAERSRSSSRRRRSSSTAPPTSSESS
Chain of Small conductance calcium-activated potassium channel protein 3 (Q9UGI6 whole entry): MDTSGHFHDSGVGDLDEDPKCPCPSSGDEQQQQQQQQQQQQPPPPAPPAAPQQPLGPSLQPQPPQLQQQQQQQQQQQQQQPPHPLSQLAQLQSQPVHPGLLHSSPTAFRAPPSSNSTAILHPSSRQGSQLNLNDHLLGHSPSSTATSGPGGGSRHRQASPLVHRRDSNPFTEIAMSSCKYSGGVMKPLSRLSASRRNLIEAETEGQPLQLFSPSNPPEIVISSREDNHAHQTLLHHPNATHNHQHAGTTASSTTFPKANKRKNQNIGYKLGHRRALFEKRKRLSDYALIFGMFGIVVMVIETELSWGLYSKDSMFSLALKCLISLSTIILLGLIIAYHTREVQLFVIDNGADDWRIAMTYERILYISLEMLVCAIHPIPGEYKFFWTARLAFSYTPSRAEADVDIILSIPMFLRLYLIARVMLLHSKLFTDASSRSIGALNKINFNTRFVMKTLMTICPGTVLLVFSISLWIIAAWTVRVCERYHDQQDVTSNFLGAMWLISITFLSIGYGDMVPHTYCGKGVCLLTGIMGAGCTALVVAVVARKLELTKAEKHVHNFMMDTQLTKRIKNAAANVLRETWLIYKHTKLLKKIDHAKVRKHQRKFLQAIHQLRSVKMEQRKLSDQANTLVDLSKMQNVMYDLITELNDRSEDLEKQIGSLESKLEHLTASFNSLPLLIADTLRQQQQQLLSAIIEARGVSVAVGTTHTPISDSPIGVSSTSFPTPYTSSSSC

COc1cc2c(cc1OC)[C@H](CCC[C@H]1c3cc(OC)c(OC)cc3CCN1C)N(C)CC2
pKi [1]: 6.56

COc1cc2c3cc1Oc1c(OC)c(OC)cc4c1[C@@H](Cc1ccc(O)c(c1)Oc1ccc(cc1)C[C@@H]3N(C)CC2)N(C)CC4 [BERBAMINE]
pKi [2]: 6.55
pKi [3]: 6.17
Ratio Ki (Homo sapiens): 2.17
